Laboratory results: patent US20050038093A1, “Treating diabetic retinopathy with angiotensin II receptor blockers” (Boehringer Ingelheim International GmbH, priority 2003, published 2005)

Columns and labels:
[1] = test system: pericytes isolated from bovine retina; assay: Measurement of reactive oxygen species in pericytes; type: cell-based; settings: for inhibition of angiotensin II-induced increase in the generation of reactive oxygen species in pericytes: 10^-7 M telmisartan, 10^-7 or 10^-6 M angiotensin II
Experimental: (§1) Pericytes were isolated from bovine retina and maintained in Dulbecco's Eagle's medium supplemented with 20% of fetal bovine serum (FBS) as described in Yamagishi et al, Circulation 87:1969, 1993.
Angiotensin II treatment was carried out in medium containing 2% FBS. Pericytes were treated with or without 10^−7 or 10^−6 M angiotensin II in the presence or absence of 10^−7 M telmisartan for 24 hours. Then the intracellular formation of reactive oxygen species was detected as described in Yamagishi et al, A J Biol Chem 276:25096, 2001 by using the fluorescent probe CM-H2DCFDA (Molecular Probes Inc, Eugene, Oreg.).

pericytes = assay: Measurement of [3H]thymidine incorporation in pericytes; type: cell-based, bovine; settings: 10^-7 M angiotensin, 24 hours
Experimental: as §1
Pericytes were treated with or without 10^−7 M angiotensin in the presence or absence of 1 mM N-acetylcystein (NAC) for 24 hours, and then [^3H]thymidine incorporation in cells was determined as described in Yamagishi et al, FEBS Lett 384:103, 1996.

VEGF mRNA = assay: Quantitative reverse transcription PCR of VEGF mRNA in pericytes; type: cell-based, bovine; settings: 10^-7 M angiotensin II, 4 hours; for inhibition of angiotensin II-induced up-regulation of VEGF mRNA levels in pericytes: 10^-7 M telmisartan or 1 mM NAC
Experimental: Sequences and primers for detecting VEGF and β-actin mRNAs are described in Yamagishi et al, J Biol Chem 272:8723, 1997.
(§2) Poly(A)^+ RNAs were isolated from cells treated with or without 10^−7 M angiotensin II in the presence or absence of 10^−7 M telmisartan or 1 mM NAC for 4 hours, and analyzed by quantitative reverse transcription PCR (RT-PCR) as described in Yamagishi et al, Diabetologia 41:1435, 1998. The amounts of poly(A)^+ RNA templates (about 30 ng) and cell cycle numbers for amplification (28 cycles for VEGF gene and 22 cycles for β-actin gene) were chosen in quantitative ranges were reactions proceeded linearly, which had been determined by plotting signal intensities as functions of the template amounts and cell cycle numbers as described in Yamagishi et al, J Biol Chem 277:20309, 2002.
It has been reported that there exist five alternatively spliced products from the single VEGF gene. They are designated as VEGF121, VEGF145, VEGF165 VEGF189, and VEGF206. Since Northern blot analysis can not clearly discriminate these five mRNA products, we employed a more sensitive semi-quantitative RT-PCR technique as described in Okamoto et al, FASEB J 16:1928, 2002. In these experiments, cDNA products of 486 and 618 base pairs length are amplified from mRNAs for VEGF121 and VEGF165, respectively. […] The VEGF mRNA level was about 1.5 fold higher than the basal level when exposed to 10^−7 M angiotensin II.

PDGF-B mRNA = assay: Quantitative reverse transcription PCR of PDGF-B mRNA in cultured retinal pericytes; type: cell-based, bovine; settings: 10^-7 M angiotensin II, 4 hours; for inhibition of angiotensin II induced up-regulation of PDGF mRNA levels: 10^-7 M telmisartan or 1 mM NAC
Experimental: as §2, with “To investigate the effects of angiotensin II on PDGF-B gene expression in cultured retinal pericytes, poly(A)^+” for “Poly(A)^+”, “RT-PCR” for “quantitative reverse transcription PCR (RT-PCR)”, “Kidney Int 63:464, 2003.” for “Diabetologia 41:1435, 1998.”, “PDGF-B” for “VEGF”, “2002. Sequences of primers for detecting bovine β-actin mRNAs were the same as described in Okamoto et al, FASEB J 16:1928, 2002.” for “2002.”

[2] = IDNT study (Lewis et al, 2001); cited from earlier work
[3] = EUCLID study, cited from earlier work

CC(=O)N[C@@H](CS)C(=O)O [NAC, N-acetylcystein]
reversal of angiotensin II-induced increase in generation of reactive oxygen species by antioxidant ([1]; added during treatment of pericytes with angiotensin II): reverses the increase | prevention of angiotensin II-induced decrease in DNA synthesis in pericytes (pericytes; 1 mM NAC): significantly prevented | inhibition of angiotensin II-induced up-regulation of VEGF mRNA levels in pericytes (VEGF mRNA): completely inhibit | inhibition of angiotensin II induced up-regulation of PDGF mRNA levels (PDGF-B mRNA): significantly inhibit

CCCCC1=NC2(CCCC2)C(=O)N1Cc1ccc(-c2ccccc2-c2nnn[nH]2)cc1 [irbesartan]
protection against the progression of nephropathy due to type II diabetes [2]: effective

NCCCC[C@H](N[C@@H](CCc1ccccc1)C(=O)O)C(=O)N1CCC[C@H]1C(=O)O [lisinopril]
risk of progression to proliferative retinopathy [3]: significantly reduced | reduction of the risk of progression of retinopathy ([3]; retinopathy not a primary endpoint): approximately 50%

CCCc1nc2c(C)cc(-c3nc4ccccc4n3C)cc2n1Cc1ccc(-c2ccccc2C(=O)O)cc1 [telmisartan]
effect of compound alone on generation of reactive oxygen species ([1]; 10^-7 M telmisartan without angiotensin II, 24 hours): did not affect | inhibition of angiotensin II-induced increase in the generation of reactive oxygen species in pericytes ([1]; 24 hours): inhibit | inhibition of angiotensin II-induced increase in the generation of reactive oxygen species in pericytes ([1]; 24 hours, listed as Telmisartan): completely inhibit | inhibition of angiotensin II-induced up-regulation of VEGF mRNA levels in pericytes (VEGF mRNA): completely inhibit | inhibition of angiotensin II induced up-regulation of PDGF mRNA levels (PDGF-B mRNA): significantly inhibit

angiotensin II (DRVYIHPF; Angiotensin-2; UniProt P01019 25-32, looked up) [stimulus used on pericytes]
increase of intracellular generation of reactive oxygen species ([1]; 10^-6 M angiotensin II, 24 hours, medium with 2% FBS): about 1.3 fold | effect on DNA synthesis in pericytes ([3H]thymidine incorporation) (pericytes): significantly inhibited | VEGF mRNA level relative to basal level (VEGF mRNA): about 1.5 fold | PDGF-B mRNA level relative to basal level (PDGF-B mRNA): about 5 fold
